Assay results: patent US9681661B2, “Method of controlling parasitic weeds with mixtures comprising herbicidal acetolactate synthase inhibitors and plant growth regulators” (BASF Agrochemical Products B.V., priority 2011, dated 2017)

Tests used:
Orobanche cumana (ORACE) = test: Field experiment: herbicidal activity against natural Orobanche cumana infestation in sunflower, postemergence treatments; format: in vivo; settings: Imazamox 50 and/or Prohexadione-Ca 100 g a.i./ha total
Source text: Host test plants were, uniform and homogeneous with respect to age, cultivar, and row spacing and distance in the row. Plot size 2.8 m×10 m-4 rows per plot. Test area was kept weed free of conventional weeds (monocotyledon and dicotyledonous weeds) by hand hoeing. Natural infestations of parasitic weeds were present in the soil of the test areas. Postemergence treatments where performed with up to 4 application timings regarding the growth stage of the host plant. Application timings are specified with M, N, O, and P and related to the following growth stages of the host test plants according to the BBCH-scale” Lancashire, […] Boom, E. Weber and A. Witzenberger, 1991: A uniform decimal code for growth stages of crops and weeds. Ann. appl. […] Sequential application were performed with the solo active components and compared to the respective mixture. The respectively stated components A) and B) were used as commercially available formulations and, with addition of a solvent system, introduced into the spray medium used for applying the active composition. In the examples, the spray medium used was water. […] The test period extended over 1 to 4 month. During this time, the plants were tended, and their response to the individual treatments was evaluated. Evaluation was carried out using a scale from 0 to 100 to express activity (in %). 100% means no emergence of the parasitic plants, or complete destruction of at least the above-ground parts, and 0% means no damage or normal course of growth of the parasitic plants. Good herbicidal activity is given at values of at least 70, and very good herbicidal activity is given at values of at least 85. In the examples below, using the method of S. R. Colby (1967) “Calculating synergistic and antagonistic responses of herbicide combinations”, Weeds 15, p. 22ff., the value E, which is expected if the activity of the individual active compounds is only additive, was calculated. E=X+Y-(X·Y/100) • where • X=percent activity using active component A) at an application rate a; • Y=percent activity using active component B) at an application rate b; • E=expected activity (in %) by A)+B) at application rates a+b. If the value found experimentally is higher than the value E calculated according to Colby, a synergistic effect is present. The herbicidal activity of the tested compositions against Orobanche cumana (ORACE) according to the invention is compiled in table V.

Orobanche sp. (ORASS) [1] = test: Impact of host infestation with Orobanche, tank mixture versus single application, score 1 to 10; format: in vivo; settings: 21 days after treatment; application at BBCH 16-18; Imazamox 15 g/ha, Prohexadione-Ca 75 g/ha; value 1 (no infestation) to 10 (high negative impact)
Source text: Seeds of sunflower (Helianthus annuus L.) where sown as host test plants using small scale field experiment equipment. Host test plants were, uniform and homogeneous with respect to age, cultivar, and row spacing and distance in the row. Plot size 2.8 m×10 m—4 rows per plot. Test area was kept weed free of conventional weeds (monocotyledon and dicotyledonous weeds) by hand hoeing. Natural infestations of parasitic weeds were present in the soil of the test areas. Sequential application were performed with the solo active components and compared to the respective mixture. The respectively stated components A) and B) were used as commercially available formulations and, with addition of a solvent system, introduced into the spray medium used for applying the active composition. In the examples, the spray medium used was water.

Orobanche cumana = settings: reported in EP 0123001 (A1) / Fan et al., Weed Research 2007; cited from earlier work
Orobanche sp. (ORASS) [2] = test: Field experiment: delay of weed emergence and number of Orobanche plants per host plant in imazamox tolerant sunflower; format: in vivo; settings: Imazamox 30 g/ha at BBCH 14-15 and 20 g/ha at BBCH 16-18, Prohexadione-Ca 60 g/ha at BBCH 14-15 and 40 g/ha at BBCH 16-18; for first visible emergence of orobanche (DAT): untreated 22
sunflower = test: Field experiment: yield of sunflower seeds under Orobanche infestation; format: in vivo, Helianthus annuus L.; settings: Imazamox 30 g/ha at BBCH 14-15 and 20 g/ha at BBCH 16-18; Prohexadione-Ca 60 g/ha at BBCH 14-15 and 40 g/ha at BBCH 16-18; untreated 1127
[3] = timing M, N, O, P (BBCH growth stage), scale 0 to 100, 100 = no emergence or complete destruction
[4] = timing M, O (BBCH growth stage), scale 0 to 100
[5] = timing N, P (BBCH growth stage), scale 0 to 100

prohexadione-calcium
activity in % (Orobanche cumana (ORACE); [3]): 2% | activity in % (Orobanche cumana (ORACE); [4]): 5% | activity in % (Orobanche cumana (ORACE); [5]): 8% | impact of host infestation with ORASS (Orobanche sp. (ORASS) [1]): 6 | sunflower resistance against infection with Orobanche cumana (Orobanche cumana): induces sunflower resistance | no. of orobanche plants per host plant (Orobanche sp. (ORASS) [2]): 55 | first visible emergence of orobanche (DAT) (Orobanche sp. (ORASS) [2]): 63 DAT | yield of sunflower seeds (sunflower): 961 kg/ha

COCc1cnc(C2=NC(C)(C(C)C)C(=O)N2)c(C(=O)O)c1 (stereo not drawn) [Imazamox, imazamox]
activity in % (Orobanche cumana (ORACE); [3]): 69% | activity in % (Orobanche cumana (ORACE); [4]): 67% | activity in % (Orobanche cumana (ORACE); [5]): 68% | impact of host infestation with ORASS (Orobanche sp. (ORASS) [1]): 4 | no. of orobanche plants per host plant (Orobanche sp. (ORASS) [2]): 15 | first visible emergence of orobanche (DAT) (Orobanche sp. (ORASS) [2]): 81 DAT | yield of sunflower seeds (sunflower): 2055 kg/ha
